Data reported in patent US12097173B2, “Volatile organic compound formulations having antimicrobial activity” (priority 2019, dated 2024).

What was measured:
Format in all cases: cell-based
Cercospora beticola = assay: plate bioassay of volatile test mixtures, growth inhibition; settings: 30 hr at 22° C.; esters with 1:1 v/v propanoic acid and isobutryic acid (acids to ester 7:2 v/v), 9 ul; acids 7 ul
Procedure: (§1) FIG. 1 illustrates a plate bioassay to determine the bioactivity of various esters when combined with a 1:1 mix of the two organic acids as per Table 2. The test organisms were as follows—Cercospora (dark-lower left bottom) then clockwise—Phytophthora, Verticillium, Sclerotinia, Pythium. Fusarium, Trichoderma, Rhizoctonia, and Aspergillus. The streaks were Saccharomyces (far right bottom) then Candida, E coli and Bacillus (left bottom). A=control plate, and B=plate with System 1 after incubation for 30 hr.
(§2) FIG. 9 depicts the biological activities of various test mixtures against a panel of test microbes. A small plug of each organism was placed in the periphery of the PDA plate. In the center well was placed the test solution in the plastic cup holder. A control plate (A) was also set up. After 30 hr the growth of the test organisms was compared to that of the control and the % inhibition was calculated. The (B) plate contained the test mixture. Measurements were made 30 hr after plate set up.
(§3) FIG. 1. Indicates how the assays were done to yield the data sets in Table 1. The various esters were combined with a 1:1 mixture of propanoic acid and isobutryic acid and these were added 7:2 V/V with the ester to be tested.
(§4) Shown in Table 1, are the inhibition and killing effects of propanoic acid, and isobutryic acid together and alone and with various esters. The tests were conducted over the course of 30 hr at 22° C. Measurements were made on appropriate controls and thus the percentage of inhibition calculations could be made on treatments vs the growth on a control organism (non-treated). The bacteria and yeast like organisms were evaluated on the basis of relative growth rates after 30 hr. Those highlighted areas on the table show those compounds (esters) having the most compatibility with propanoic and isobutryic acid 1:1 v/v mixtures with the appropriate esters at a 7:2 ratio—Systems 1 and 2 above. It is from this test that Systems 1 and 2 were discovered. The acids were added at […] individually and combination of the esters with the acids were added at the […] in the plate assay.
as §2, with “Tests were conducted as similarly described for Systems 1 and 2 above (FIG. 9) to ascertain” for “FIG. 9 depicts”

Phytophthora cinnamomi = assay: as above; settings: 30 hr at 22° C.; esters with 1:1 v/v propanoic acid and isobutryic acid (acids to ester 7:2 v/v), 9 ul; acids 7 ul
Procedure: as §1, §2, §3, §4
as §2, with “Tests were conducted as similarly described for Systems 1 and 2 above (FIG. 9) to ascertain” for “FIG. 9 depicts”

Pythium ultimum = assay: as above; settings: 30 hr at 22° C.; esters with 1:1 v/v propanoic acid and isobutryic acid (acids to ester 7:2 v/v), 9 ul; acids 7 ul
Procedure: as §1, §2, §3, §4
as §2, with “Tests were conducted as similarly described for Systems 1 and 2 above (FIG. 9) to ascertain” for “FIG. 9 depicts”

Rhizoctonia solani = assay: as above; settings: 30 hr at 22° C.; esters with 1:1 v/v propanoic acid and isobutryic acid (acids to ester 7:2 v/v), 9 ul; acids 7 ul
Procedure: as §1, §2, §3, §4
as §2, with “Tests were conducted as similarly described for Systems 1 and 2 above (FIG. 9) to ascertain” for “FIG. 9 depicts”

Trichoderma viridae = assay: as above; settings: 30 hr at 22° C.; esters with 1:1 v/v propanoic acid and isobutryic acid (acids to ester 7:2 v/v), 9 ul; acids 7 ul
Procedure: as §1, §2, §3, §4
as §2, with “Tests were conducted as similarly described for Systems 1 and 2 above (FIG. 9) to ascertain” for “FIG. 9 depicts”

Verticillium dahliae = assay: as above; settings: 30 hr at 22° C.; esters with 1:1 v/v propanoic acid and isobutryic acid (acids to ester 7:2 v/v), 9 ul; acids 7 ul
Procedure: as §1, §2, §3, §4
as §2, with “Tests were conducted as similarly described for Systems 1 and 2 above (FIG. 9) to ascertain” for “FIG. 9 depicts”

Sclerotinia sclerotiorum = assay: as above; settings: 30 hr at 22° C.; esters with 1:1 v/v propanoic acid and isobutryic acid (acids to ester 7:2 v/v), 9 ul; acids 7 ul
Procedure: as §1, §2, §3
The tests were conducted over the course of 30 hr at 22° C. Measurements were made on appropriate controls and thus the percentage of inhibition calculations could be made on treatments vs the growth on a control organism (non-treated). The bacteria and yeast like organisms were evaluated on the basis of relative growth rates after 30 hr. […] The acids were added at […] individually and combination of the esters with the acids were added at the […] in the plate assay.
as §2, with “Tests were conducted as similarly described for Systems 1 and 2 above (FIG. 9) to ascertain” for “FIG. 9 depicts”

Aspergillus fumigatus = assay: as above; settings: 30 hr at 22° C.; esters with 1:1 v/v propanoic acid and isobutryic acid (acids to ester 7:2 v/v), 9 ul; acids 7 ul
Procedure: as §1, §3, §4

Fusarium subglutinans = assay: as above; settings: 30 hr at 22° C.; esters with 1:1 v/v propanoic acid and isobutryic acid (acids to ester 7:2 v/v), 9 ul; acids 7 ul
Procedure: as §1, §3, §4

Bacillus subtilus = assay: plate bioassay of volatile test mixtures, relative growth of streak; settings: relative growth after 30 hr at 22° C.; esters with 1:1 v/v propanoic acid and isobutryic acid (7:2 v/v), 9 ul; acids 7 ul
Procedure: as §1, §2, §3, §4
as §2, with “Tests were conducted as similarly described for Systems 1 and 2 above (FIG. 9) to ascertain” for “FIG. 9 depicts”

Candida albicans = assay: as above; settings: relative growth after 30 hr at 22° C.; esters with 1:1 v/v propanoic acid and isobutryic acid (7:2 v/v), 9 ul; acids 7 ul
Procedure: as §1, §2, §3, §4
as §2, with “Tests were conducted as similarly described for Systems 1 and 2 above (FIG. 9) to ascertain” for “FIG. 9 depicts”

Escherichia coli = assay: as above; settings: relative growth after 30 hr at 22° C.; esters with 1:1 v/v propanoic acid and isobutryic acid (7:2 v/v), 9 ul; acids 7 ul
Procedure: as §1, §2, §3, §4
as §2, with “Tests were conducted as similarly described for Systems 1 and 2 above (FIG. 9) to ascertain” for “FIG. 9 depicts”

Saccharomyces cerevicae = assay: as above; settings: relative growth after 30 hr at 22° C.; esters with 1:1 v/v propanoic acid and isobutryic acid (7:2 v/v), 9 ul; acids 7 ul
Procedure: as §1, §2, §3, §4
as §2, with “Tests were conducted as similarly described for Systems 1 and 2 above (FIG. 9) to ascertain” for “FIG. 9 depicts”

SMILES	inhibition of Cercospora beticola (Cercospora beticola) [%]	inhibition of Phytophthora cinnamomi (Phytophthora cinnamomi) [%]	inhibition of Pythium ultimum (Pythium ultimum) [%]	inhibition of Rhizoctonia solani (Rhizoctonia solani) [%]	inhibition of Trichoderma viridae (Trichoderma viridae) [%]	inhibition of Verticillium dahliae (Verticillium dahliae) [%]	inhibition of Sclerotinia sclerotiorum (Sclerotinia sclerotiorum) [%]	inhibition of Aspergillus fumigatus (Aspergillus fumigatus) [%]	inhibition of Fusarium subglutinans (Fusarium subglutinans) [%]	growth of Bacillus subtilus (Bacillus subtilus)	growth of Candida albicans (Candida albicans)	growth of Escherichia coli (Escherichia coli)	growth of Saccharomyces cerevicae (Saccharomyces cerevicae)
CC(C)COC(=O)C(C)C [Isobutyl Isobutyrate]	95	0	100	86	47	92	75	80	50	Inhibited	Growth Observed	Inhibited	Growth Observed
CC(C)COC(=O)CC(C)C [Isobutyl Isovalerate]	95	100	100	94	20	96	0	0	67	Inhibited	Growth Observed	Inhibited	Growth Observed
CCC(=O)OCC(C)C [Isobutyl Propionate]	100	33	100	100	40	88	80	80	67	No Growth	Growth Observed	No Growth	Growth Observed
CC(C)C(=O)O [Isobutyric Acid, reference compound]	95	100	100	86	27	90	40	90	67	No Growth	Growth Observed	No Growth	Growth Observed
CC(C)OC(=O)C(C)C [Isopropyl Isobutyrate]	95	−33	100	43	20	96	30	0	33	No Growth	Growth Observed	No Growth	Growth Observed
CCCOC(=O)C(C)C [Propyl Isobutyrate]	95	87	98	97	33	88	40	50	50	Inhibited	Growth Observed	Inhibited	Growth Observed
